Tested on: Wnt/β-catenin signaling pathway
Experiment: TCF-luciferase reporter gene assay (Wnt-3a stimulated HEK 293 cells)
Type: cell-based
Conditions: Homo sapiens, HEK293, Wnt-3a stimulation, read-out: Inhibitory activity against the Wnt/β-catenin signaling pathway
Protocol: Evaluation of inhibitory activity of the compounds of the present invention against the Wnt/β-catenin signaling pathway was performed by evaluating the inhibitory activity of the compounds of the present invention against the Wnt/β-catenin signaling pathway activated by the Wnt-3a ligand using a commercially available TCF-luciferase reporter gene assay system.
In a T75 flask, HEK 293 cells (ATCC No. CRL-1573) were added to a DMEM medium (manufactured by NACALAI TESQUE, INC., No. 08459-35) supplemented with 10% FBS (AusGeneX PTY LTD.) and 1% Penicillin/Streptomycin (NACALAI TESQUE, INC.). The cells in the flask were cultured in a 5% CO2 incubator.
The cultured HEK 293 cells were diluted with a DMEM medium supplemented with only 10% FBS so as to have a cell concentration of 2×10^5 cells/mL, and 100 μL each of the diluted cells were seeded into respective wells of 96-well plates (PerkinElmer Inc., ViewPlate No. 6005181), followed by culturing overnight in the 5% CO2 incubator. To an OptiMEM medium (Invitrogen® No. 11058), pGL4.49 [luc2p/TCF-LEF-RE/Hygro] plasmid DNA (Promega Corporation) and FuGENE® HD (Promega No. E2691) were added so as to have concentrations of 1 μg/mL and 3 μg/mL, respectively, to prepare a transfection solution as described in the protocol attached to the reagent. To the respective wells containing the HEK 293 cells cultured overnight, 100 μL each of the transfection solution was added gently, followed by culturing overnight in the 5% CO2 incubator to perform transfection.
To a DMEM medium, 0.5% charcoal/dextran treated Fetal Bovine Serum (Thermo Scientific No. SH30068.02) and LiCl (Sigma-Aldrich No. L9650) were added to prepare a LiCl-containing medium (final concentration of LiCl: 10 mM). The medium in the respective wells of the HEK 293 cells cultured overnight and transfected with a reporter gene was removed by decantation. The LiCl-containing medium (90 μL) was added gently to each well, followed by culturing overnight in the 5% CO2 incubator.
A DMSO stock solution of the compound to be tested was diluted 100-fold with a LiCl-containing medium so as to prepare a solution of the compound to be tested, which is 10 times the test concentration. Further, Recombinant Mouse Wnt-3a (R&D Systems, Inc. #1324-WN) was dissolved in a 0.1% BSA-PBA solution so as to have a concentration of 40 μg/mL, and the resultant solution was diluted with a LiCl-containing medium so as to have a concentration of 100 ng/mL, to prepare a Wnt-3a solution. To each well of the HEK 293 cells cultured overnight in the LiCl-containing medium, 10 μL each of the solution of the compound to be tested was added, followed by culturing in the 5% CO2 incubator for 2 hours (the final concentration of the compound to be tested: 3-0.03 μM). Thereafter, 10 μL each of the Wnt-3a solution was added to the respective wells, followed by further culturing for 5 hours.
Using ONE-Glo™ Luciferase Assay System (Promega Corporation, No. E6110), the luciferase activity of the cells in the wells was measured by a microplate reader (Synergy H1, BioTek Instruments, Inc.) An IC50 value was calculated from the luminescence intensity of each compound concentration, supposing that the luminescence intensity of a group with no addition of the compound and with Wnt-3a stimulation was 100%, and that the luminescence intensity of a group with no addition of the compound and with no Wnt-3a stimulation was 0%.

IC50: < 300 nM
SMILES: O[C@H]1CC[C@@H](Oc2cccc3cnc(Nc4ccc5nc[nH]c5c4)nc23)CC1 [Example 1, cis-4-({2-[(1H-benzo[d]imidazol-6-yl)amino]quinazolyn-8-yl}oxy)cyclohexanol]

Source: patent US9682961B2, “Quinazoline derivative” (CARNA BIOSCIENCES, INC., priority 2013, dated 2017)
